# Measurements reported in ChEMBL document CHEMBL2218064, “Structure-activity relationship data for chemical series of antagonists of the P2X7 receptor (Supplementary Bioactivity Data for publication CHEMBL1157114)”.
# pIC50: −log10 of the molar value.
# Biological target: T1, P2X purinoceptor 7 (Homo sapiens, UniProt Q99572)
# T1 sequence (Q99572 whole entry): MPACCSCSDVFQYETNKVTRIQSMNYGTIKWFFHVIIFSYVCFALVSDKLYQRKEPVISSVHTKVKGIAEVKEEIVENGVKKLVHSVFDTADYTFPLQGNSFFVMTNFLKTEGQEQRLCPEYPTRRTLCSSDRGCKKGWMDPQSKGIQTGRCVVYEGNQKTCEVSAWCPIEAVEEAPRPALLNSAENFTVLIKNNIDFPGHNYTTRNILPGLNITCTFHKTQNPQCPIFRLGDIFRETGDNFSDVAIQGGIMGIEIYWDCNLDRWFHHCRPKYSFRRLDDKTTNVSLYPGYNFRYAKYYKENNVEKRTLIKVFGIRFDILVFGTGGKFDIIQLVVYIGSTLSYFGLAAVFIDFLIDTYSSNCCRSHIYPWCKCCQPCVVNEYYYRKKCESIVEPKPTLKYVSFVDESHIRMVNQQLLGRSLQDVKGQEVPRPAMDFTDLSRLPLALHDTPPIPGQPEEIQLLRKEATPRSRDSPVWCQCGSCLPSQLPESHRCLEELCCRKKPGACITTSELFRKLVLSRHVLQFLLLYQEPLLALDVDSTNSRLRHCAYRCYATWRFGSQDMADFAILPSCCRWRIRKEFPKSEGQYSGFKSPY
# Experiment: SUPPLEMENTARY: Inhibition of human P2X7 receptor assessed as inhibition of ethidium bromide accumulation. Same assay as CHEMBL1103860
row,SMILES,pIC50
1,Cn1ncc(Cl)c1CC(=O)NCc1ccc(Cl)cc1Cl,7.90
2,Cc1nn(-c2ccccc2)c(C)c1CC(=O)NCc1cccc(F)c1F,6.50
3,CC(C)N1[C@H](C(=O)NCc2ccc(F)c(F)c2F)CCS1(=O)=O,6.30
4,CN1C(=O)CC[C@@H]1C(=O)NCc1cccc(C(F)(F)F)c1Cl,7.80
5,COCCNCCn1nc(C)c(CC(=O)NCc2ccc(F)cc2Cl)c1C,6.90
6,C[C@H]1CC(=O)N(C)[C@@H]1C(=O)NCc1cccc(C(F)(F)F)c1Cl,7.00
7,O=C(c1cccc(C(F)(F)F)c1Cl)N1CCn2c(Cl)cnc2C1,7.90
8,Cc1cc(F)cc(C)c1N1CCN(Cc2ccc(F)c(F)c2F)C(=O)C1=O,6.50
9,O=C(NCc1cccc(C(F)(F)F)c1Cl)C1CC(=O)N(Cc2ccccc2)C1 (centres undefined),6.50
10,Cc1nn(CCN2CCCCC2)c(C)c1CC(=O)NCc1ccc(F)cc1Cl,7.30
11,Cc1ccc(-n2nc(C)c(CC(=O)NCc3ccc(F)cc3Cl)c2C)c(C)n1,6.40
12,O=C1C(=O)N(c2cccc3ccccc23)CCN1Cc1ccc(F)cc1Cl,7.20
13,O=C(c1ccc(Cl)cc1Cl)N1CCn2c(-c3ccccc3)cnc2C1,7.70
14,CN1C(=O)CC(C)(C)C1C(=O)NCc1cccc(C(F)(F)F)c1Cl (centres undefined),7.00
15,CCN1[C@H](C(=O)NCc2ccc(Cl)cc2Cl)CCCS1(=O)=O,6.70
16,O=C(c1ccc(F)cc1Cl)N1CCn2c(nnc2-c2cnccn2)C1,8.30
17,O=C(c1cccc(C(F)(F)F)c1Cl)N1CCn2c(nnc2N2CCCC2)C1,7.80
18,CCN1C(=O)CC[C@@H]1C(=O)NCc1cccc(Cl)c1F,6.10
19,Cc1ccncc1-n1nc(C)c(CC(=O)NCc2ccc(F)cc2Cl)c1C,6.40
20,O=C(c1cccc(C(F)(F)F)c1Cl)N1CCn2c(nc(C(F)(F)F)c2-c2ccc(F)cc2)C1,7.10
21,CCN1C(=O)CC[C@@H]1C(=O)NCc1ccc(Cl)c(C(F)(F)F)c1,6.50
22,CN1C(=O)CC[C@H]1C(=O)NCc1ccc(F)cc1Br,7.40
23,Cc1ccccc1-c1cnc2n1CCN(C(=O)c1cccc(C(F)(F)F)c1Cl)C2,7.00
24,Cn1nccc1-c1nnc2n1CCN(C(=O)c1cccc(Cl)c1Cl)C2,7.60
25,O=C(c1cccc(C(F)(F)F)c1Cl)N1CCn2c(-c3cnccn3)cnc2C1,8.70
26,CN1C(=O)CC[C@H]1C(=O)NCc1cccc(Cl)c1Cl,7.80
27,Cc1c(N2CCOCC2)cccc1N1CCN(C(=O)c2cccc(C(F)(F)F)c2Cl)CC1=O,7.90

row,SMILES,pIC50
1,Cn1ccc(-c2nnc3n2CCN(C(=O)c2cccc(Cl)c2Cl)C3)n1,8.20
2,CCN(CC)C(=O)Cn1nc(C)c(CC(=O)NCc2ccc(F)cc2Cl)c1C,6.30
3,O=C1CN(C(=O)c2cccc(C(F)(F)F)c2Cl)CCN1Cc1cccnc1,6.40
4,CCN1C(=O)CC[C@H]1C(=O)NCc1c(F)ccc(C)c1Cl,6.80
5,Cc1ccc(C)c(N2CCN(Cc3ccc(F)cc3Cl)C(=O)C2=O)n1,6.70
6,Cc1c(CC(=O)NCc2ccc(F)cc2Cl)cnn1-c1ccc(F)cc1,6.60
7,CN1C(=O)c2ccccc2C1C(=O)NCc1ccc(Cl)cc1Cl (centres undefined),6.90
8,COc1ccc(N2C[C@@H](C(=O)NCc3ccc(Cl)cc3Cl)N(C)C2=O)cn1,7.80
9,Cc1ccc(N2C[C@@H](C(=O)NCc3ccc(Cl)cc3Cl)N(C)C2=O)nn1,6.40
10,O=C(c1cccc(C(F)(F)F)c1Cl)N1CCN(C2CCCC2)C(=O)C1,6.80
11,CN1C(=O)N(c2ncccn2)C[C@H]1C(=O)NCc1ccc(F)cc1Cl,7.60
12,CN1CCN(C(=O)c2ccc(F)cc2Cl)CC1=O,6.30
13,CC1=CC(=O)N(C2CC2)C1C(=O)NCc1ccc(Cl)cc1Cl (centres undefined),6.20
14,O=C(NCc1ccc(Cl)cc1Cl)[C@@H]1CCC(=O)N1C1CCC1,8.30
15,CCN1C(=O)C(C)(C)C[C@H]1C(=O)NCc1ccc(F)c(F)c1Cl,7.40
16,O=C1C(=O)N(c2cccc(Cl)c2Cl)CCN1Cc1ccccc1Cl,6.70
17,CCN1C(=O)N(C)C[C@H]1C(=O)NCc1ccc(Cl)cc1Cl,8.80
18,CN1C(=O)N(CCN2CCOCC2)CC1C(=O)NCc1cccc(C(F)(F)F)c1Cl (centres undefined),7.60
19,CCN1[C@H](C(=O)NCc2ccc(F)c(F)c2Cl)CCS1(=O)=O,7.10
20,O=C(c1cccc(C(F)(F)F)c1Cl)N1CCN(c2ccc(F)cc2Cl)C(=O)C1,7.80
21,O=C(c1cccc(C(F)(F)F)c1Cl)N1CCn2ccnc2C1,7.00
22,CCN1C(=O)CC[C@@H]1C(=O)NCc1c(Cl)cccc1Cl,6.20
23,CN1C(=O)N(c2cnccn2)C[C@H]1C(=O)NCc1cccc(C(F)(F)F)c1Cl,7.80
24,O=C(c1ccc(F)c(Cl)c1)N1CCn2c(nnc2-c2cnccn2)C1,7.70
25,O=C(c1cccc(C(F)(F)F)c1F)N1CCn2c(Br)nnc2C1,7.10
26,CC(C)N1C(=O)CCC1(C)C(=O)NCc1ccc(Cl)cc1Cl (centres undefined),6.70
27,CN1C(=O)CC[C@@H]1C(=O)NCc1ccc(F)cc1C(F)(F)F,6.60

row,SMILES,pIC50
1,O=C(c1ccccc1Cl)N1CCn2c(nnc2-c2ccncn2)C1,6.80
2,CCN1C(=O)CC[C@H]1C(=O)NCc1ccc(F)c(F)c1Cl,8.10
3,N#Cc1cc(F)ccc1N1CCN(C(=O)c2cccc(C(F)(F)F)c2Cl)CC1=O,8.40
4,CN1CCN(C(=O)c2cccc(C(F)(F)F)c2Cl)CC1=O,7.20
5,O=C(NCc1cccc(C(F)(F)F)c1Cl)[C@H]1CCC(=O)N1Cc1cccnc1,7.30
6,Cc1nn(-c2ccccc2)c(C)c1CC(=O)NCc1ccc(Cl)c(Cl)c1,6.80
7,CC(C)CN1CCN(C(=O)c2cccc(C(F)(F)F)c2Cl)CC1=O,6.70
8,CCN1[C@H](C(=O)NCc2ccc(F)cc2C(F)(F)F)CCS1(=O)=O,6.90
9,Cc1nn(CCN)c(C)c1CC(=O)NCc1ccc(F)cc1Cl,6.80
10,Cc1nn(CC(C)C)c(C)c1CC(=O)NCc1ccc(F)cc1Cl,6.60
11,O=C(c1cccc(Cl)c1Cl)N1CCN(c2ccc(F)cc2F)C(=O)C1,6.90
12,O=C1C(=O)N(c2cccc(I)c2)CCN1Cc1ccc(F)cc1Cl,6.40
13,O=C(c1cccc(Cl)c1Cl)N1CCN(c2cccc3ccccc23)C(=O)C1,7.80
14,Cc1nn(C2CCOCC2)c(C)c1CC(=O)NCc1ccc(F)cc1Cl,5.90
15,CC(C)CN1CCN(C(=O)c2cccc(Cl)c2Cl)CC1=O,7.30
16,O=C(NCc1ccc(Cl)cc1Cl)C1COCC(=O)N1Cc1ccccc1 (centres undefined),6.30
17,O=C(c1c(Cl)cc(Cl)cc1Cl)N1CCN(c2cc(N3CCOCC3)ccc2Cl)C(=O)C1,8.00
18,Cc1cccc(C)c1N1CCN(Cc2ccc(F)cc2C(F)(F)F)C(=O)C1=O,8.10
19,Cc1nn(CCO)c(C)c1CC(=O)NCc1cccc(Cl)c1C,7.20
20,O=C(c1cccc(C(F)(F)F)c1Cl)N1CCn2c(nnc2-c2cccnn2)C1,7.90
21,Cc1c(CN2CCOCC2)cccc1N1CCN(Cc2ccc(F)cc2Cl)C(=O)C1=O,7.00
22,CCN(CC)CCn1nc(C)c(CC(=O)NCc2ccc(F)cc2Cl)c1C,6.70
23,O=C(NCc1cccc(C(F)(F)F)c1Cl)C1COCC(=O)N1Cc1ccccc1 (centres undefined),6.60
24,Cc1c(CC(=O)NCc2ccc(F)cc2Cl)c(C(C)C)nn1-c1ccccc1,6.60
25,CC(C)N1CC(C(=O)NCc2ccc(Cl)cc2Cl)N(C)C1=O (centres undefined),8.30
